# Measurements from patent publication US20230107216A1, “PANTETHEINE DERIVATIVES AND USES THEREOF” (Comet Therapeutics, Inc., priority 2018, published 2023).
# Like-named read-outs stand apart in the source and are kept apart here.
# How the values were obtained:
# HepG2 cells [1] = assay: MitoBiogenesis In-Cell ELISA (COX-I, SDH-A); format: cell-based; conditions: Homo sapiens, 168 h, 10 uM, 7 days, read-out: % increase in Mitochondrial Biogenesis
# From the text: We determined the effect of compounds of the present disclosure on the levels of two mitochondrial proteins using MitoBiogenesis™ In-Cell ELISA Kit (Abcam ab110216) according to manufacturer's instructions. The two proteins are each subunits of a different oxidative phosphorylation enzyme complex, one protein being subunit I of Complex IV (COX-1), which is mitochondrial (mt)DNA-encoded, and the other being the 70 kDa subunit of Complex II (SDH-A), which is nuclear (n)DNA-encoded. Complex IV includes several proteins which are encoded in the mitochondrion, while the proteins of Complex II are entirely encoded in the nucleus. HepG2 cells (ATCC, HB-8065) were cultured (5% CO2 at 37° C.) and plated in Poly-D-Lysine 384-Well plate (Corning, 356663) at a density of 40,000 cells/mL in 50 μL. Culture and assay media consisted of DMEM (Gibco, 11995-065) supplemented with 1% Penicillin-Streptomycin and 10% FBS (Hyclone, SV30087.03). Cells were allowed to settle for 30 min at room temperature and further incubated overnight (37° C. and 5% CO2) for adherence. Next day, 50-5 μM of the negative control Chloramphenicol (Selleck, S1677), test compounds (50-10 μM) and vehicle DMSO (0.2%) were added at the recommended volumes to the 384-well plate for 7 days without media change using a Tecan compound dispenser. All the solutions and wash buffers were prepared and dispensed according to manufacturer's volumes for a 384-well plate format. Effects of compounds on mtDNA-encoded protein expression (COX-I) and nuclear DNA-encoded mitochondrial protein expression (SDH-A) were expressed as relative signal (nm) to vehicle of a n=2 per conditions.
# [2] = test system: primary fibroblasts (healthy controls and PA, MMA, BCKDK, PDH, VLCAD, LS, PC, GA, VLCFA, KSS, FXN, HD); assay: Measurement of ROS (H2DCFDA) in primary fibroblasts; format: cell-based, human; conditions: Homo sapiens, Fibroblast, BCKD GM00649, procedure Example 812, Assay Condition C
# In short: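 Patient and healthy-control primary fibroblasts switched to supplemented DMEM 24 h before assay, then treated with compound (10 μM) plus H2DCFDA (22 μM) for 2 h (PA, MMA lines) or 24 h (other lines). Kinetic fluorescence at 492/527 nm over 60 min; only live cells analysed.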
# HepG2 cells [3] = assay: Mitochondrial membrane potential (MITO-ID MP detection Kit); format: cell-based; conditions: Homo sapiens, 168 h, 7 days, read-out: % decrease in Mitochondrial Membrane Potential
# In short: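 Cells plated at 160000 cells/mL in DMEM with 10% FBS and 1% Pen-Strep, adhered overnight at 37° C., 5% CO2. Exposure to test compounds (50-10 μM) or 0.2% DMSO for 7 days without media change; membrane potential measured with MITO-ID MP detection kit per manufacturer.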
# [4] = test system: Propionic Acidemia (PA) primary fibroblasts GM00371; assay: Mitochondrial respiration, XFe96 Extracellular Flux Analyzer (OCR/ECAR), PA fibroblasts GM00371; format: cell-based; conditions: Homo sapiens, Fibroblast, assay condition C (10 mM glucose, 10% FBS), 50 μM, read-out: Increase in Maximal Respiratory Capacity AUC
# [5] = test system: Bronchial epithelial cells co-cultured with dermal fibroblast (BF4T system); assay: BioMAP BF4T system (TNFα and IL-4); format: cell-based, human; conditions: Homo sapiens, 24 h; 1 uM; procedure of Example 830; read-out: % increase in VCAM-1
# [6] = test system: Peripheral blood mononuclear cells co-cultured with B-cells (BT system); assay: cells; conditions: Homo sapiens, 72 h, read-out: % decrease in sIL-17
# [7] = test system: Keratinocytes co-cultured with dermal fibroblast (KF3CT system); assay: BioMAP KF3CT system (IL-1β, TNFα, IFNγ, TGFβ); format: cell-based, human; conditions: 1 uM
# Method: The BioMAP platform (BioMAP® Diversity PLUS® Panel from Eurofins) is an in vitro phenotypic profiling technology that screened the compounds of the present disclosure (hereafter indicated as test agents) in human primary cell-based systems modelling complex tissue and disease states. The BioMAP assays were performed using the Eurofin's BioMAP Technology Platform as (see references 1 to 13 in the example 824 section) to model different diseases on primary cell-based model systems. These systems consisted of either single primary cell types or co-culture cells. Adherent cell types were cultured or co-cultured in 96 or 384-well plates until confluence followed by the addition of compounds prepared in DMSO at a final concentration of ≤0.1%. In each cell-based system, primary cells from heathy donors (2-6 donors) were pooled and treated with compounds at 1 and 10 μM dose 1h prior to stimulation and remain in culture as indicated in Example 825, Example 826, Example 827, Example 828, Example 829, Example 830, Example 831, Example 832, Example 833, Example 834, Example 835, Example 836 and Example 837. For on the BioMAP® Diversity PLUS® Panel, please see the following references, which are incorporate herein.
# Following the general procedure as described in Example 824, Keratinocytes were co-cultured with dermal fibroblast (KF3CT system) and treated with IL-1β, TNFα, IFNγ and TGFβ for 24h in the presence or absence of the compounds to model psoriasis, dermatitis and skin biology. Biomarkers read out were; MCP-1, ICAM-1, IP-10, IL-8, MIG, IL-1α, MMP-9, PAI-1, SRB, TIMP-2, uPA.
# HepG2 cells [8] = assay: Glucose uptake (Glucose Uptake-Glo); format: cell-based; conditions: Homo sapiens, 50 uM, read-out: % increase in Glucose Uptake
# [9] = test system: Peripheral blood mononuclear cells co-cultured with venular endothelial cells (HUVEC) (LPS system); assay: BioMAP LPS system; format: cell-based, human; conditions: 10 uM, procedure of Example 827
# [10] = test system: Coronary artery smooth muscle cells (CASM3C system); assay: BioMAP CASM3C system (IL-1β, TNFα, IFNγ); format: cell-based, human
# [11] = test system: Bronchial epithelial cells (BE3C system); assay: BioMAP BE3C system (IL-1β, TNFα, IFNγ); format: cell-based, human; conditions: Homo sapiens, Epithelial cell, 24 h; 10 uM; procedure of Example 831; read-out: % decrease in MMP-1
# [12] = test system: Methylmalonic Acidemia (MMA) primary fibroblasts GM01673; assay: Mitochondrial respiration, XFe96 Extracellular Flux Analyzer (OCR/ECAR), MMA fibroblasts GM01673; format: cell-based; conditions: Homo sapiens, Fibroblast, assay condition D (1 mM glucose, 10% FBS), 10 μM, read-out: Increase in Maximal Respiratory Capacity AUC
# Method: The effect of the compounds of the present disclosure on mitochondrial respiration was measured with a XFe96 Extracellular Flux Analyzer (Seahorse Bioscience, Agilent Technologies) and Oxygen consumption Rate (OCR) and Extracellular acidification rate (ECAR) determined.
# Cell culture and treatments. Primary adherent fibroblasts were cultured in minimum essential medium (MEM) (Gibco, 25030081) supplemented with 2 mM L-Glutamine (Gibco, 25030081), 15% fetal bovine serum (FBS) (Gibco, 26400044) and 1% penicillin/streptomycin (Gibco, 5140122) at 37° C. and 5% CO2. Cells were collected for either passaging or experiment at ˜70-80% confluence. Cells were obtained by trypsinization and seeded at 20000 cells/well in cell culture microplates (Seahorse Bioscience, 101085-004) and allowed to adhere for 16 hours in culture media.
# By profiling different primary cells and/or optimizing their culture media or environmental components one can select cell lines and/or conditions that are appropriate for the biological or disease model. In the present example, 24 hours prior to OCR and ECAR profiling, media was changed to Dulbecco's Modified Eagle Medium (DMEM, Agilent Seahorse 103575-100) with the appropriate supplements for the different primary cells (10 mM glucose, 2 mM L-glutamine, 1 mM pyruvate, 10% FBS; 1 mM glucose, 2 mM L-glutamine, 1 mM pyruvate, 10% FBS; 10 mM glucose, 10% FBS; 5 mM glucose 10% FBS; 1 mM glucose 10% FBS). Cells used in this example were: Propionic Acidemia (PA) (GM00371, GM03590 Coriell Institute for Medical Research, Tsi 6337, Tsi 4626, Tsi 3618 Trans-Hit Bio), Methylmalonic Acidemia (MMA) (GM01673, Coriell Institute for Medical Research, Tsi 5224 Trans-Hit Bio), Branched chain ketoacid dehydrogenase kinase (BCKDK) (GM00612, GM00649 Coriell Institute for Medical Research), Subnormal activation of pyruvate dehydrogenase complex (PDH) (GM01503 Coriell Institute for Medical Research), Very long-chain acyl-CoA dehydrogenase (VLCAD) (GM17475), Leigh Syndrome (LS) (GM03672, GM13411 Coriell Institute for Medical Research), Pyruvate Carboxylase Deficiency (PC) (GM00444 Coriell Institute for Medical Research), Glutaric Acidemia-I (GA) (GM10653), Friedreich's Ataxia (FXN) (GM04078 Coriell Institute for Medical Research, Huntington's disease (HD) (GM21756 Coriell Institute for Medical Research), Ornithine Transcarbamylase Deficiency (OTC) (GM12756 Coriell Institute for Medical Research), Kearns-Sayre Syndrome (KSS) (GM06225 Coriell Institute for Medical Research).
# One hour before the assay, the cells were washed with freshly prepared unbuffered serum free-Seahorse XF Assay medium (Seahorse Bioscience, North America, USA, 103575-100) with the same supplements as for the previous 24 hour incubation.
# After baseline measurements of OCR, cells were challenged with compounds of the present disclosure at different concentrations (10 to 50 μM) or vehicle (DMSO, 0.1%) and a post-compound baseline was recorded. OCR was measured after sequentially adding to each well 1 μg/ml oligomycin (inhibitor of ATP synthase Sigma-Aldrich, 753531), then maximal OCR was determined with carbonyl cyanide 4-(trifluoromethoxy) phenylhydrazone (FCCP, Sigma-Aldrich, C2920), (uncoupler of oxidative phosphorylation) and 0.5 μM of rotenone (Sigma-Aldrich, R8875) plus antimycin A (Sigma-Aldrich, A8674) (inhibitors of mitochondrial complex I and III) for determination of rotenone-antimycin insensitive respiration together with Hoechst for nuclear staining in situ when normalized to cell counts. After the analysis and nuclear staining, the XFp microplate was transferred to the Cytation 5, and the nuclear images were captured, the individual nuclei were identified and counted by BioTek Gen5 software. Data were expressed as pmol of O2 per minute and normalized by nuclear staining and baselined to pre-compound addition.
# Assay conditions were as stated below.
# Assay specifics on assay conditions are indicated below when readouts were normalized to cell counts. […]
# [13] = test system: Dermal fibroblasts (HDF3CGF system); assay: BioMAP HDF3CGF system (IL-1β, TNFα, IFNγ, EGF, bFGF, PDGF-BB); format: cell-based, human; conditions: Homo sapiens, Fibroblast, 72 h; 1 uM; read-out: % increase in 72 Hour Proliferation
smiles,measurement,setting,value
COC(=O)C[C@H](N)C(=O)SCCNC(=O)CCNC(=O)[C@H](O)C(C)(C)CO [Compound 414],activation at 10 µM,HepG2 cells [1],10%
same,inhibition at 10 µM,[2]; read-out: Decreased ROS by at least 10%,≥ 10%
same,inhibition at 10 µM,[2]; read-out: Decreased ROS by at least 30%,≥ 30%
same,inhibition at 10 µM,HepG2 cells [3],> 20%
"COC(=O)CCC(=O)SCCNC(=O)CCNC(=O)[C@H](O)C(C)(C)COP(=O)(O)O [Compound 62, Methyl (R)-4-((2-(3-(2-hydroxy-3,3-dimethyl-4-(phosphonooxy)butanamido)propanamido)ethyl)thio)-4-oxobutanoate]",activation at 10 µM,HepG2 cells [1],> 5%
same,inhibition at 50 µM,HepG2 cells [3]; 50 uM,> 50%
"CC(C)(CO)[C@@H](O)C(=O)NCCC(=O)NCCSC(CC(=O)O)C(=O)OCC[N+](C)(C)C (stereo partly drawn) [Compound 57, 3-(2-{3-[(R)-2,4-dihydroxy-3,3-dimethylbutyrylamino]propionylamino}ethylthio)-3-(2-trimethylazaniumethoxycarbonyl)propionic acid]",activation at 50 µM,[4],≥ 10%
same,activation at 1 µM,[5],≥ 10%
same,inhibition at 10 µM,[6],≥ 20%
same,% decrease in PAI-I,[7],≥10%
same,% decrease in MCP-1,[7]; procedure of 834,≥10%
same,activation at 50 µM,HepG2 cells [8],≥ 20%
same,% increase in sPGE2,[9],≥10%
same,inhibition at 10 µM,"[9]; Homo sapiens, HUVEC, 24 h, read-out: % decrease in TissueFactor",≥ 10%
same,activation at 10 µM,"[9]; Homo sapiens, HUVEC, 24 h, read-out: % increase in sTNFα",≥ 20%
same,% decrease in Tissue Factor,[10]; 1 uM,≥10%
same,% decrease in Proliferation,"[10]; 1 uM, procedure of Example 832",≥10%
same,% decrease in CXCL9,[10]; 10 uM,≥10%
same,% decrease in HLA-DR,[10]; 10 uM,≥10%
same,inhibition at 10 µM,"[10]; Homo sapiens, 24 h, 10 uM, read-out: % decrease in Thrombomodulin",≥ 20%
same,inhibition at 10 µM,[11],≥ 10%
same,activation at 10 µM,[12],≥ 10%
same,activation at 1 µM,[13],≥ 10%
"CSCCNC(=O)CCNC(=O)[C@H](O)C(C)(C)CO [Compound 1250, (R)-2,4-dihydroxy-3,3-dimethyl-N-(3-((2-(methylthio)ethyl)amino)-3-oxopropyl)butanamide]",activation at 10 µM,HepG2 cells [1],> 5%
same,inhibition at 10 µM,HepG2 cells [3],> 50%
